Source: publication PMC10088252
Several values for one entry are separate records, joined by “and”; a condition that tells them apart may be missing. Identical values can stand only once. Like-named read-outs stand apart in the source and are kept apart here.

How the values were obtained:
[1] = tested on: locally advanced or metastatic NSCLC harboring c-MET overexpression or MET exon 14 skipping mutation; type: in vivo, human
Description: Patients enrolled in this study were divided into two parts. […] Patients with pre-existing c-MET overexpression at hospital diagnosis were also included in Part A. In Part B, patients in the 400 mg bis in die (BID) dose cohort, blood and tissue samples were collected to perform NGS to determine the MET exon 14 skipping mutation. Patients harboring pre-existing MET exon 14 skipping mutation at hospital diagnosis were also enrolled into Part B. […] Statistical analyses were performed using SAS version 9.4 (SAS Institute, Cary, NC, USA). Age was expressed as median (range), and categorical variables were expressed as frequency (percentage). The 95% CIs of ORR and DCR were calculated using Clopper-Pearson method. […] No imputation method was performed for missing data.

[2] = Plasma PK after multiple doses for 28 days, Part A (PKAS), routine PK analysis; type: in vivo, human
Description: Serial peripheral blood samples were collected at pre-dose on Cycle 1 Day 8, Cycle 1 Day 15 and Cycle 1 Day 22 for the trough concentration (Ctrough) obtained during the dosing interval. […] After Cycle 1, the Ctrough was measured every 4 or 8 or 12 weeks. The whole blood (3 mL) was taken intravenously and placed in sodium heparin tubes, gently turned over 15 times, and centrifuged within 1 h (4 °C 3000 rpm for 10 min). Two portions of the centrifuged upper plasma should be transferred to 1.5 mL centrifuge tubes with identification labels and stored at -80 °C. The following PK parameters were assessed: time to maximum plasma concentration at steady state (Tmax,ss), overall body clearance at steady state for extravascular dosage (CLss/F), terminal half-life (T1/2), plasma Ctrough observed in Cycle 1 at steady state, total volume of drug distribution at steady state according to the terminal phase (Vz,ss/F), AUC over a dosing interval (AUCtau), ratio of metabolites to parent drug calculated based on AUCtau (MP ratio).
Statistical analyses were performed using SAS version 9.4 (SAS Institute, Cary, NC, USA). Age was expressed as median (range), and categorical variables were expressed as frequency (percentage). The 95% CIs of ORR and DCR were calculated using Clopper-Pearson method. The 95% CIs of PFS and OS were calculated using Brookmeyer-Crowley method. PK parameters were expressed as mean (standard deviation) or median (range), and analyzed using Phoenix version 8.0 (Certara, LP, Princeton, NJ, USA). No imputation method was performed for missing data.

In the case of O=C(Nc1ccc(Oc2ccnc3c2CCN3)c(F)c1)c1c[nH]cc(-c2ccc(F)cc2)c1=O, the “BOR CR” value ([1]; 300 mg QD (n=12)) is reported as 0 n (%), the “BOR NE (patients not evaluable)” value ([1]; 300 mg QD (n=12)) is reported as 0 n (%) and the “BOR PD” value ([1]; 300 mg QD (n=12)) is reported as 7 (58.3) n (%). The “BOR PR” value ([1]; 300 mg QD (n=12)) was 0 n (%), the “BOR SD” value ([1]; 300 mg QD (n=12)) was 5 (41.7) n (%) and the “DCR (95% CI)” value ([1]; 300 mg QD (n=12)) was 41.7% and 41.7 (15.2, 72.3) %. The “ORR (95% CI)” value ([1]; 300 mg QD (n=12)) was 0 (0, 26.5) %, the “PFS, median (95% CI)” value ([1]; 300 mg QD (n=12)) was 1.9 months and 1.9 (1.9, 5.6) months and the “BOR CR” value ([1]; 400 mg BID (n=4)) was 0 n (%). For the same compound, the “BOR PD” value ([1]; 400 mg BID (n=4)) was 0 n (%), the “BOR PR” value ([1]; 400 mg BID (n=4)) was 0 n (%) and the “BOR CR” value ([1]; 450 mg QD (n=12)) was 0 n (%). For the same compound, the “BOR PD” value ([1]; 450 mg QD (n=12)) was 6 (50.0) n (%), the “BOR PR” value ([1]; 450 mg QD (n=12)) was 0 n (%) and the “BOR SD” value ([1]; 450 mg QD (n=12)) was 4 (33.3) n (%). For the same compound, the “DCR (95% CI)” value ([1]; 450 mg QD (n=12)) was 33.3% and 33.3 (9.9, 65.1) %, the “ORR (95% CI)” value ([1]; 450 mg QD (n=12)) was 0 (0, 26.5) % and the “OS, median (95% CI)” value ([1]; 450 mg QD (n=12)) was 9.3 months and 9.3 (2.6, NE) months. For the same compound, the “PFS, median (95% CI)” value ([1]; 450 mg QD (n=12)) was 1.9 months and 1.9 (1.1, 3.8) months, the “BOR CR” value ([1]; 600 mg QD (n=10)) was 0 n (%) and the “BOR PD” value ([1]; 600 mg QD (n=10)) was 2 (20.0) n (%). The “BOR SD” value ([1]; 600 mg QD (n=10)) was 3 (30.0) n (%), the “DCR (95% CI)” value ([1]; 600 mg QD (n=10)) was 40.0% and 40.0 (12.2, 73.8) % and the “ORR (95% CI)” value ([1]; 600 mg QD (n=10)) was 10.0 (0.3, 44.5) %. For the same compound, the “PFS, median (95% CI)” value ([1]; 600 mg QD (n=10)) was 1.8 months and 1.8 (1.2, 3.9) months, the ORR ([1]; Part A (n=34), c-MET overexpression) was 2.9% and the “DCR (95% CI)” value ([1]; Part B, 400 mg BID (n=4)) was 75.0% and 75.0 (19.4, 99.4) %. For the same compound, the “ORR (95% CI)” value ([1]; Part B, 400 mg BID (n=4)) was 0% and 0 (0, 60.2) %, the “PFS, median (95% CI)” value ([1]; Part B, 400 mg BID (n=4)) was 3.4 months and 3.4 (3.2, 3.7) months and the “BOR CR” value ([1]; Total (n=38)) was 0 n (%). The “BOR PD” value ([1]; Total (n=38)) was 15 (39.5) n (%), the “BOR SD” value ([1]; Total (n=38)) was 15 (39.5%) n (%) and 15 (39.5) n (%) and the “DCR (95% CI)” value ([1]; Total (n=38)) was 42.1% and 42.1 (26.3, 59.2) %. For the same compound, the “ORR (95% CI)” value ([1]; Total (n=38)) was 2.6% and 2.6 (0.1, 13.8) %, the “OS, median (95% CI)” value ([1]; Total (n=38)) was 10.3 months and 10.3 (7.3, NE) months and the “PFS, median (95% CI)” value ([1]; Total (n=38)) was 1.9 months and 1.9 (1.9, 3.7) months. The “AUCtau, mean (SD)” value ([2]; 300 mg QD (n=7), 28 days) was 7680.0 (4120.0) h × ng/mL, the “CLss/F, mean (SD)” value ([2]; 300 mg QD (n=7), 28 days) was 50.4 (25.6) L/h and the “Cmax,ss, mean (SD)” value ([2]; 300 mg QD (n=7), 28 days) was 794.0 (370.0) ng/mL. The “Cmin,ss, mean (SD)” value ([2]; 300 mg QD (n=7), 28 days) was 104.0 (49.0) ng/mL, the “Ctrough, mean (SD)” value ([2]; 300 mg QD (n=7), 28 days) was 113.5 (55.0) ng/mL and the “T1/2, mean (SD)” value ([2]; 300 mg QD (n=7), 28 days) was 11.2 (2.8) h. The “Tmax,ss, mean (SD)” value ([2]; 300 mg QD (n=7), 28 days) was 3.9 (2.0) h, the “Vz,ss/F, mean (SD)” value ([2]; 300 mg QD (n=7), 28 days) was 781.0 (357.0) L and the “AUCtau, mean (SD)” value ([2]; 450 mg QD (n=7), 28 days) was 11,000.0 (5970.0) h × ng/mL. The “CLss/F, mean (SD)” value ([2]; 450 mg QD (n=7), 28 days) was 57.6 (39.5) L/h, the “Cmax,ss, mean (SD)” value ([2]; 450 mg QD (n=7), 28 days) was 932.0 (480.0) ng/mL and the “Cmin,ss, mean (SD)” value ([2]; 450 mg QD (n=7), 28 days) was 168.0 (127.0) ng/mL. The “Ctrough, mean (SD)” value ([2]; 450 mg QD (n=7), 28 days) was 184.1 (131.2) ng/mL, the “T1/2, mean (SD)” value ([2]; 450 mg QD (n=7), 28 days) was 11.8 (4.8) h and the “Tmax,ss, mean (SD)” value ([2]; 450 mg QD (n=7), 28 days) was 4.0 (1.0) h. For the same compound, the “Vz,ss/F, mean (SD)” value ([2]; 450 mg QD (n=7), 28 days) was 1050.0 (974.0) L, the “AUCtau, mean (SD)” value ([2]; 600 mg QD (n=7), 28 days) was 10,100.0 (5350.0) h × ng/mL and the “CLss/F, mean (SD)” value ([2]; 600 mg QD (n=7), 28 days) was 83.2 (58.9) L/h. For the same compound, the “Cmax,ss, mean (SD)” value ([2]; 600 mg QD (n=7), 28 days) was 788.0 (394.0) ng/mL, the “Cmin,ss, mean (SD)” value ([2]; 600 mg QD (n=7), 28 days) was 157.0 (89.6) ng/mL and the “Ctrough, mean (SD)” value ([2]; 600 mg QD (n=7), 28 days) was 203.9 (99.2) ng/mL. The “T1/2, mean (SD)” value ([2]; 600 mg QD (n=7), 28 days) was 12.7 (4.8) h, the “Tmax,ss, mean (SD)” value ([2]; 600 mg QD (n=7), 28 days) was 3.9 (2.0) h and the “Vz,ss/F, mean (SD)” value ([2]; 600 mg QD (n=7), 28 days) was 1780.0 (2080.0) L. The “Ctrough, mean (SD)” value ([2]; Cycle 1 Day 8 (192 h), 300 mg QD (n=7)) was 163.0 (241.5) ng/mL, the “Ctrough, mean (SD)” value ([2]; Cycle 1 Day 8 (192 h), 450 mg QD (n=7)) was 178.1 (128.0) ng/mL and the “Ctrough, mean (SD)” value ([2]; Cycle 1 Day 8 (192 h), 600 mg QD (n=7)) was 165.6 (66.6) ng/mL. For the same compound, the “Ctrough, mean (SD)” value ([2]; Cycle 1 Day 15 (360 h), 300 mg QD (n=7)) was 161.5 (126.3) ng/mL, the “Ctrough, mean (SD)” value ([2]; Cycle 1 Day 15 (360 h), 450 mg QD (n=7)) was 216.5 (111.8) ng/mL and the “Ctrough, mean (SD)” value ([2]; Cycle 1 Day 15 (360 h), 600 mg QD (n=7)) was 188.7 (67.3) ng/mL. The “Ctrough, mean (SD)” value ([2]; Cycle 1 Day 22 (528 h), 300 mg QD (n=7)) was 124.2 (126.2) ng/mL, the “Ctrough, mean (SD)” value ([2]; Cycle 1 Day 22 (528 h), 450 mg QD (n=7)) was 236.3 (83.4) ng/mL and the “Ctrough, mean (SD)” value ([2]; Cycle 1 Day 22 (528 h), 600 mg QD (n=7)) was 164.1 (65.7) ng/mL. The “median Tmax,ss” value ([2]; among 300, 450, 600 mg QD cohorts, 28 days) was 4.0 h and the “time to steady state” value ([2]; continuous administration) was “seven”.
